Laboratory results taken from PubChem BioAssay AID1963864 (Molecular Pharmacology Branch, DTP, NCI, 2024).

System: KRAS PDC multicell spheroid viability
Assay: Anticancer human tumor 521955-158-R6-J3-PDC patient-derived pancreatic carcinoma cell line growth inhibition [KRAS2]
Conditions: for IC50: curve of first compound; for viability, T/C: stronger effect = lower value
Text: Multicellular complex tumor spheroid response to RAS pathway inhibitors in combination with a targeted agents in patient-derived cell lines with oncogenic KRAS variants from multiple cancer types
A high-throughput screen of multi-cell type tumor spheroids was designed to identify active combinations of targeted small molecules and KRAS pathway inhibitors. Complex spheroids include a stromal component modeled by human endothelial cells (HUVEC) and fibroblasts modeled by human mesenchymal stem cells (MSCs). The concentration ranges selected for each drug and investigational agent were based upon clinically achievable concentrations if the clinical Cmax of the agent was known.
Compounds. The drugs and investigational agents: BI-3406 (NSC825286), BAY-293 (NSC824723), batoprotafib (TNO155; NSC825523), sotorasib (AMG 510; NSC818433), MRTX1257 (NSC819558), elimusertib (BAY 1895344; NSC800525), molibresib (GSK525762; NSC774829), temuterkib (LY3214996; NSC803410), venetoclax (NSC766270), alisertib (NSC759677), olaparib (NSC753686), talazoparib (NSC767125), erdafitinib (NSC781556), ipatasertib (NSC767898), cabozantinib (NSC761068), nintedanib (NSC756659), abemaciclib (NSC768073), docetaxel (NSC628503), trametinib (NSC758246), and sapanisertib (NSC764658) were obtained from the National Cancer Institute (NCI) Developmental Therapeutics Program Chemical Repository. The FDA-approved anticancer drug set is available from the Developmental Therapeutics Program. […] The stock solutions were prepared in dimethyl sulfoxide (DMSO, Sigma-Aldrich, St. Louis, MO, cat. D2650) at 800-fold the tested concentration and stored at -70 degrees C prior to their use. All drugs and investigational agents were tested over a range starting from a high concentration at or near the clinical Cmax and decreasing in half-log increments. If the clinical Cmax for an agent had not been determined, the highest concentration tested was 10 microM.
Cell Culture. All cells were maintained in an incubator at 37 degrees C and 5% CO2 with 95% humidity. The PDC lines were cultured according to standard operating procedures established by the NCI PDMR (https://pdmr.cancer.gov/sops/default.htm). Briefly, all PDCs were thawed and cultured in Matrigel-coated flasks prepared with a working solution of 1X Ham's F-12 nutrient mix, without supplementation (Invitrogen, Waltham, MA, cat. 11765054), 100 U/mL penicillin-streptomycin (Invitrogen, cat. 15140122), and 2.5% Matrigel (Corning Inc., Corning, NY, cat. 354248) for the first three passages. All PDCs were cultured in complete DMEM/F-12 media containing advanced DMEM/F-12 (Invitrogen, cat. 12634028), 4.9% defined fetal bovine serum, heat inactivated (HyClone Laboratories Inc., Logan, UT, cat. SH30070.03HI), 389 ng/mL hydrocortisone (Sigma-Aldrich, cat. H4001), 9.7 ng/mL human EGF recombinant protein (Invitrogen, cat. PHG0313), 23.4 microg/mL adenine (Sigma-Aldrich, cat. A2786), 97.3 U/mL penicillin-streptomycin (Invitrogen, cat. 15140122), 1.9 mM L-glutamine (Invitrogen, cat. 25030081), and 9.7 microM Y-27632 dihydrochloride (Tocris Bioscience, Bristol, United Kingdom, cat. 1254). The PDCs were cultured in complete DMEM/F12 media without 9.7 microM Y-27632 dihydrochloride for at least two passages prior to the screen. The established cell line HOP-62 was cultured in RPMI 1640 medium, HEPES (Invitrogen, cat. 22400105) with 10% defined fetal bovine serum (HyClone Laboratories Inc., cat. SH30070.03) and 2 mM L-glutamine (Invitrogen, cat. 25030081). The pooled donor HUVEC were cultured in endothelial cell growth medium 2 (PromoCell, Heidelberg, Germany, cat. C-22011) and the hMSC were cultured in mesenchymal stem cell growth medium 2 (PromoCell, cat. C-28009). For all experiments, HUVEC and hMSC were used at passages </=5, while the malignant cell lines were used at passages </=15. […]

[1] = second compound 0.1 µM, first compound 0.0316 µM
[2] = second compound 0.1 µM, first compound 0.1 µM
[3] = second compound 0.1 µM, first compound 0.316 µM
[4] = second compound 0.1 µM, first compound 1 µM
[5] = second compound 0.1 µM, first compound 3.16 µM
[6] = second compound 0.1 µM, first compound 10 µM
[7] = second compound 0.316 µM, first compound 0.0316 µM
[8] = second compound 0.316 µM, first compound 0.1 µM
[9] = second compound 0.316 µM, first compound 0.316 µM
[10] = second compound 0.316 µM, first compound 1 µM
[11] = second compound 0.316 µM, first compound 3.16 µM
[12] = second compound 0.316 µM, first compound 10 µM
[13] = second compound 1 µM, first compound 0.0316 µM
[14] = second compound 1 µM, first compound 0.1 µM
[15] = second compound 1 µM, first compound 0.316 µM
[16] = second compound 1 µM, first compound 1 µM
[17] = second compound 1 µM, first compound 3.16 µM
[18] = second compound 1 µM, first compound 10 µM
[19] = second compound 3.16 µM, first compound 0.0316 µM
[20] = second compound 3.16 µM, first compound 0.1 µM
[21] = second compound 3.16 µM, first compound 0.316 µM
[22] = second compound 3.16 µM, first compound 1 µM
[23] = second compound 3.16 µM, first compound 3.16 µM
[24] = second compound 3.16 µM, first compound 10 µM
[25] = second compound 10 µM, first compound 0.0316 µM
[26] = second compound 10 µM, first compound 0.1 µM
[27] = second compound 10 µM, first compound 0.316 µM
[28] = second compound 10 µM, first compound 1 µM
[29] = second compound 10 µM, first compound 3.16 µM
[30] = second compound 10 µM, first compound 10 µM
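Also: drug exposure lasted seven days.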
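For viability, T/C in this document: 100% = DMSO vehicle wells and lower means fewer viable cells.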

Row | Compound | IC50 (second compound 0.1 µM) | IC50 (second compound 0.316 µM) | IC50 (second compound 1 µM) | IC50 (second compound 3.16 µM) | IC50 (second compound 10 µM) | viability, T/C [1] | viability, T/C [2] | viability, T/C [3] | viability, T/C [4] | viability, T/C [5] | viability, T/C [6] | viability, T/C [7] | viability, T/C [8] | viability, T/C [9] | viability, T/C [10] | viability, T/C [11] | viability, T/C [12] | viability, T/C [13] | viability, T/C [14] | viability, T/C [15] | also measured
1 | COc1cc(Nc2ncc3c(n2)-c2ccc(Cl)cc2C(c2c(F)cccc2OC)=NC3)ccc1C(=O)O + C=CC(=O)N1CCN(c2nc(=O)n(-c3c(C)ccnc3C(C)C)c3nc(-c4c(O)cccc4F)c(F)cc23)C(C)C1 | > 10 µM | > 10 µM | > 10 µM | > 10 µM | > 10 µM | 109% | 103% | 102% | 92.6% | 89.1% | 89.8% | 100% | 108% | 99.4% | 79.6% | 82.9% | 82.1% | 93.2% | 103% | 94.7% | viability, T/C [16]: 95.6%; viability, T/C [17]: 86.3%; viability, T/C [18]: 80.5%; viability, T/C [19]: 91.3%; viability, T/C [20]: 89.9%; viability, T/C [21]: 77.4%; viability, T/C [22]: 78.6%; viability, T/C [23]: 84.6%; viability, T/C [24]: 79%; viability, T/C [25]: 71.5%; viability, T/C [26]: 77.9%; viability, T/C [27]: 70.6%; viability, T/C [28]: 62.4%; viability, T/C [29]: 54.2%; viability, T/C [30]: 58.3%
2 | COc1cc2nccc(Oc3ccc(NC(=O)C4(C(=O)Nc5ccc(F)cc5)CC4)cc3)c2cc1OC + C=CC(=O)N1CCN(c2nc(=O)n(-c3c(C)ccnc3C(C)C)c3nc(-c4c(O)cccc4F)c(F)cc23)C(C)C1 | > 10 µM | > 10 µM | > 10 µM | > 10 µM | > 10 µM | 91.9% | 96.8% | 96.7% | 98.1% | 119% | 111% | 95.3% | 91.3% | 102% | 99.2% | 115% | 122% | 89.8% | 106% | 96.9% | viability, T/C [16]: 104%; viability, T/C [17]: 119%; viability, T/C [18]: 120%; viability, T/C [19]: 85.5%; viability, T/C [20]: 82.9%; viability, T/C [21]: 87.4%; viability, T/C [22]: 85%; viability, T/C [23]: 99.1%; viability, T/C [24]: 90.8%; viability, T/C [25]: 64.9%; viability, T/C [26]: 66.2%; viability, T/C [27]: 52.2%; viability, T/C [28]: 64.8%; viability, T/C [29]: 53%; viability, T/C [30]: 69.9%
